In patent publication US20180317487A1, “METHOD OF CONTROLLING GROWTH OF ALS-TOLERANT PLANTS” (ROTAM AGROCHEM INTERNATIONAL COMPANY LIMITED, priority 2015, published 2018):

Assays:
ALS-tolerant plants = assay: Review of the spray test data, ALS-tolerant plants together; assay type: in vivo; conditions: review of the data of Tables 5 and 6
From the text: (§1) Seeds of normal wild variety and ALS-resistant variant of each of Stellaria media, Papaver rhoeas, Matricaria chamomilla and Matricaria inodora were sown in trays of peat-based compost placed in a glasshouse to allow germination. At the cotyledon stage, four evenly sized seedlings were transplanted into each of 9 cm diameter plastic pots containing loam soil mixed with 25% by volume horticultural silver sand and further blended with coarse grit in the ratio 3:1. The resulting potting medium was supplemented with Osmacote slow-release fertilizer (16:8:9+Mg) to provide 1.4 g per 0.35 L pot.
(§2) The formulations of each of Examples C1 to C11 and 1 to 16 were applied to the seedlings by spraying. Three replicate pots were used per treatment. Prior to spraying, the plants were watered overhead. To ensure the foliage was dry, water was not applied on the day of spraying, with the last overhead watering being the day before spraying. The herbicide formulations were made up with mains tap water. The laboratory track sprayer was set up with a Lurmark O1E80 Even spray nozzle to deliver 200±20 L/ha using gear 4 and a pressure of […] (30 psi). The application rates of the active ingredients are set out in Table 5 below.
(§3) Following spraying, the plants were returned to the glasshouse and the sprayed pots were arranged in three randomized blocks. The temperature of the glasshouse ranged from 12.2° C. to 16.1° C. by day and 10.9° C. to 13.3° C. at night. The relative humidity ranged from 75% to 101 %.
(§4) Throughout the experiment, the plants were watered to maintain the soil close to the field capacity. Following herbicide treatment, the plants were watered by sub-irrigation using individual plastic dishes for each pot to avoid any risk of cross contamination.
(§5) The visual percentage of control based on a 0-100 linear scale was assessed 21 days after treatment (DAT). The linear scale ranged from 0 (no effect) to 100 (dead plants).
(§6) In Table 6, ‘Obs’ indicates an observed result and ‘Exp’ indicates the result expected from applying the Colby equation, discussed above.

[1] = test system: wild (non-tolerant) plants; assay: Review of the spray test data, wild plants together; assay type: in vivo; conditions: review of the data of Tables 5 and 6
From the text: as §1, §2, §3, §4, §5, §6

| SMILES | damage to / effect on ALS-tolerant plants (in words) (ALS-tolerant plants) | damage to wild (non-tolerant) plants (in words) [1] |
| --- | --- | --- |
| COc1cc(OC)nc(NC(=O)NS(=O)(=O)N(C)S(C)(=O)=O)n1 [Amidosulfuron] | little or no effect | significantly damaging |
| COc1cc(OC)nc(NC(=O)NS(=O)(=O)c2c(C(=O)O)c(Cl)nn2C)n1 [Halosulfuron] | little or no effect | significantly damaging |
| COc1nc(C)nc(NC(=O)NS(=O)(=O)c2cc(I)ccc2C(=O)O)n1 [Iodosulfuron] | little or no effect | significantly damaging |
| COc1cc(OC)nc(NC(=O)NS(=O)(=O)c2cc(CNS(C)(=O)=O)ccc2C(=O)O)n1 [Mesosulfuron] | little or no effect | significantly damaging |
| COc1nc(C)nc(=NC(=O)NS(=O)(=O)c2ccccc2C(=O)O)[nH]1 [Metsulfuron] | little or no effect | significantly damaging |
| COc1cc(OC)nc(NC(=O)NS(=O)(=O)c2ncccc2C(=O)N(C)C)n1 [Nicosulfuron] | little or no effect | significantly damaging |
| CCS(=O)(=O)c1cccnc1S(=O)(=O)NC(=O)Nc1nc(OC)cc(OC)n1 [Rimsulfuron] | little or no effect | significantly damaging |
| CCS(=O)(=O)c1nc2ccccn2c1S(=O)(=O)NC(=O)Nc1nc(OC)cc(OC)n1 [Sulfosulfuron] | little or no effect | significantly damaging |
| COc1nc(C)nc(NC(=O)NS(=O)(=O)c2ccsc2C(=O)O)n1 [Thifensulfuron] | little or no effect | significantly damaging |
| COc1nc(C)nc(N(C)C(=O)NS(=O)(=O)c2ccccc2C(=O)O)n1 [Tribenuron] | little or no effect | significantly damaging |
| CSc1nnc(C(C)(C)C)c(=O)n1N [metribuzin, 4-amino-6-tert-butyl-4,5-dihydro-3-methylthio-1,2,4-triazin-5-one] | caused damage | caused damage |
